Experimental data taken from publication PMC3760808, “A New Approach to Control the Enigmatic Activity of Aldose Reductase” (PLoS ONE, 2013).
Each block holds one compound with its values, some of them ahead of it.

Experiments:
purified bovine lens AR [1] = biological target: T1, purified bovine lens AR (Bos taurus, UniProt P16116); assay: AR inhibition screening with GAL and HNE as substrates (differential inhibition); type: biochemical; details: for inhibitory action on all the tested substrates (in words): substrates GAL, HNE, glucose (and GS-HNE), Figure 4; for GAL/HNE differential inhibition (percentage inhibition with GAL minus percentage inhibition with HNE): 0.11 mM GAL vs 0.11 mM HNE, at inhibitor concentration giving 50% inhibition or maximal concentration tested
T1 construct: AR was purified from bovine lens to electrophoretic homogeneity as described; from tissue; host or cells: bovine lens
Procedure: (§1) If not otherwise specified AR activity was determined at 37°C using 4.7 mM D, L-GAL as a substrate in 0.25 M sodium phosphate buffer pH 6.8 containing 0.38 M ammonium sulfate, 0.5 mM EDTA, and 0.2 mM NADPH. AR was purified from bovine lens to electrophoretic homogeneity as described. […] One unit of enzyme activity is the amount of enzyme that catalyzes the oxidation of 1 µmol of NADPH/min under the above-mentioned conditions. The k cat values were obtained on the basis of a molecular weight of AR of 34 KDa. The purified enzyme was stored at 4°C in a 10 mM sodium phosphate buffer pH 7.0 supplemented by 2 mM dithiothreitol and was extensively dialyzed against a 10 mM sodium phosphate buffer pH 7.0 before use.
The nominal concentrations of HNE and GS-HNE solutions used as substrates of AR were determined through a colorimetric assay. […] When testing inhibitors that require DMSO to be solubilized, the same concentration of DMSO (0.7% v/v), was used in the assays both in the presence and absence of the inhibitors.
Thus, the susceptibility of AR to the inhibition exerted by a series of compounds (including some well-known ARIs) was tested at various inhibitor concentrations, using both GAL and HNE as substrates. The results of this screening (Figure 2) are expressed as ”GAL/HNE differential inhibition”, i.e. the difference between the percentage inhibition observed using GAL as a substrate and the percentage inhibition observed using HNE as a substrate. This differential inhibition was calculated at the concentration of the inhibitor leading to 50% inhibition or, when 50% inhibition was not reached, at the maximal concentration tested.
Bars indicate the difference between the percentage inhibition observed using 0.11 mM GAL as substrate and the percentage inhibition using 0.11 mM HNE (differential inhibition). The difference was calculated at the concentration of the inhibitor leading to a 50% inhibition of the reaction more sensitive to the inhibitor (i.e. the reduction of GAL for compounds displaying a positive differential inhibition and the reduction HNE for compounds displaying a negative differential inhibition) or at the maximal concentration tested if 50% inhibition was not reached. […] Framed numbers (1 to 30) refer to the compounds tested as inhibitors.

purified bovine lens AR [2] = biological target: T1, purified bovine lens AR; assay: AR inhibition with GS-HNE as substrate; type: biochemical
Procedure: as §1, with “The purified enzyme was stored at 4°C in a 10 mM sodium phosphate buffer pH 7.0 supplemented by 2 mM dithiothreitol and was extensively dialyzed against a 10 mM sodium phosphate buffer pH 7.0 before use.” left out
The nominal concentrations of HNE and GS-HNE solutions used as substrates of AR were determined through a colorimetric assay. These values were confirmed by the total decrease in absorbance at 340 nm measured, in the presence of 0.2 mM NADPH, when HNE and GS-HNE were incubated in the presence of 8 and 150 mU of AR, respectively (Figure S1). […]
Figure 3 Effect of D-glyceramide as differential AR inhibitor. Percentage residual activity was determined at various inhibitor concentrations using the following substrates: 0.11 mM of HNE (squares), GAL (diamonds), GS-HNE (circles) or 7 mM D-glucose (triangles). […]
Figure 5 Effect of compounds acting as differential AR inhibitors. Percentage residual activity was determined at various inhibitor concentrations using the following substrates: 0.11 mM HNE (squares), GAL (diamonds), GS-HNE (circles) or 7 mM D-glucose (triangles). […]

purified bovine lens AR [3] = biological target: T1, purified bovine lens AR; assay: AR inhibition with D-glucose as substrate; type: biochemical
Procedure: as §1
(§2) The nominal concentrations of HNE and GS-HNE solutions used as substrates of AR were determined through a colorimetric assay. These values were confirmed by the total decrease in absorbance at 340 nm measured, in the presence of 0.2 mM NADPH, when HNE and GS-HNE were incubated in the presence of 8 and 150 mU of AR, respectively (Figure S1). When testing inhibitors that require DMSO to be solubilized, the same concentration of DMSO (0.7% v/v), was used in the assays both in the presence and absence of the inhibitors.
Figure 3 Effect of D-glyceramide as differential AR inhibitor. Percentage residual activity was determined at various inhibitor concentrations using the following substrates: 0.11 mM of HNE (squares), GAL (diamonds), GS-HNE (circles) or 7 mM D-glucose (triangles). Error bars represent the standard deviations from at least three independent measurements.
Figure 5 Effect of compounds acting as differential AR inhibitors. Percentage residual activity was determined at various inhibitor concentrations using the following substrates: 0.11 mM HNE (squares), GAL (diamonds), GS-HNE (circles) or 7 mM D-glucose (triangles). Panels a and b refer to compounds 18 and 19, respectively. Error bars represent the standard deviations from at least three completely independent measurements including different enzyme preparations. […]

bovine lens AR = biological target: T2, bovine lens AR (Bos taurus, UniProt P16116); assay: Kinetic parameters of substrate reduction by AR (double reciprocal plots); type: biochemical; details: 8 mU purified AR, pH 6.8, 37°C
T2 construct: AR was purified from bovine lens to electrophoretic homogeneity as described; from tissue; host or cells: bovine lens
Procedure: as §1, §2
Figure 1 Double reciprocal plots for reduction of GAL, HNE and GS-HNE by bovine lens AR. Double reciprocal plots of initial rate measurements using of GAL (diamonds), HNE (squares) and GS-HNE (circles) as substrates. The assays were performed in standard conditions using 8 mU of purified AR. Error bars represent the standard deviations from at least three independent measurements.

AR from bovine heart = system: AR from bovine heart; design: method as in PMID 8554593, PMID 9445372; details: pH 6.0; cited from earlier work
human skeletal muscle AR = system: human skeletal muscle AR; design: method as in PMID 9890881, PMID 7599164; details: human skeletal muscle enzyme; cited from earlier work
AR from bovine lens = system: AR from bovine lens; design: method as in PMID 8554593, PMID 9445372; details: pH 6.0; cited from earlier work
[4] = system: human placental recombinant AR; design: method as in PMID 9890881, PMID 7599164; details: human placental recombinant enzyme; cited from earlier work

IC50 (purified bovine lens AR [2]; 0.11 mM GS-HNE as substrate, read-out: IC50, reduction of GS-HNE): ~8 mM
IC50 (purified bovine lens AR [1]; GAL as substrate, read-out: IC50 with GAL as substrate): ~10 mM
SMILES: NC(=O)[C@H](O)CO [Compound 21, D-Glyceramide]
differential inhibition glucose/HNE (in words) (purified bovine lens AR [3]; 7 mM D-glucose vs 0.11 mM HNE, Figure 3): observed only at rather high concentrations

GAL/HNE differential inhibition (percentage inhibition with GAL minus percentage inhibition with HNE) (purified bovine lens AR [1]): significant
effect on glucose reduction (purified bovine lens AR [3]; data not shown): no effect
SMILES: NC(=O)[C@H](O)[C@@H](O)[C@H](O)[C@H](O)CO [Compound 26, D gluconamide, reference compound]

Km (bovine lens AR): 39 ± 4 µM
k cat (bovine lens AR): 0.783 ± 0.05 s⁻¹
SMILES: O=C[C@@H](O)CO [GAL, D, L-glyceraldehyde]

Km (bovine lens AR): 105 ± 6 µM
k cat (bovine lens AR): 0.683 ± 0.033 s⁻¹
SMILES: CCCCCC(O)C(CC=O)SC[C@H](NC(=O)CC[C@H](N)C(=O)O)C(=O)NCC(=O)O (stereo partly drawn) [GS-HNE, 3-glutathionyl-4-hydroxy-nonanal]

Second part, the compound before the results:

SMILES: O=c1cc(-c2ccccc2)nc2cccc(O)n12 [Compound 3]
inhibitory action on all the tested substrates (in words) (purified bovine lens AR [1]): inhibits the AR catalyzed reduction of all the tested substrates

SMILES: O=C(O)c1cn(Cc2ccccc2)c2ccnn2c1=O [Compound 18]
inhibition of the AR catalyzed reduction of GS-HNE (in words) (purified bovine lens AR [2]; 0.11 mM GS-HNE, Figure 5): able to inhibit, to a different extent
type of inhibition, glucose reduction (purified bovine lens AR [3]; 47 µM inhibitor, double reciprocal plots): competitive inhibition

SMILES: O=C1NC(=O)[C@@]2(CCOc3ccc(F)cc32)N1 [Compound 29, Sorbinil]
GAL/HNE differential inhibition (percentage inhibition with GAL minus percentage inhibition with HNE) (purified bovine lens AR [1]): negligible
inhibitory action on all the tested substrates (in words) (purified bovine lens AR [1]): potent inhibitory action on all the tested substrates

SMILES: CC(/C=C1\SC(=S)N(CC(=O)O)C1=O)=C\c1ccccc1 [Compound 30, Epalrestat]
IC50 (purified bovine lens AR [1]): 0.0005 mM

SMILES: CCCCCC(O)/C=C/C=O (stereo not drawn) [HNE, 4-hydroxy-2,3-nonenal]
Km (AR from bovine heart): 7 ± 2 µM
Km (human skeletal muscle AR): 22 µM
Km (AR from bovine lens): 8.8 ± 0.9 µM
Km (bovine lens AR): 37 ± 1 µM
k cat (bovine lens AR): 0.8 ± 0.017 s⁻¹
Km [4]: 28 ± 9 µM
